Patent US11299478B2, “2-cyanopyrimidin-4-yl carbamate or urea derivative or salt thereof, and pharmaceutical composition including same” (HANLIM PHARMACEUTICAL CO., LTD., priority 2018, dated 2022)

What was measured:
Assay type in all cases: biochemical
cathepsin S = cathepsin S (Homo sapiens, UniProt P25774); assay: Inhibitory activity assay against cathepsin S (enzyme assay); conditions: Z-Phe-Arg-AMC 70 μM, enzyme 3 nM, pH 6.5, 45 minutes
Protocol: In order to measure the enzyme activity of cathepsin S, a buffer solution (pH 6.5) consisting of 50 mM MES, 2.5 mM DTT, 1.0 mM EDTA, 0.001% bovine serum albumin (BSA), and 10% DMSO was prepared. The substrate, the test material, and the enzyme were mixed in the buffer solution in a predetermined concentration. The Z-Phe-Arg-AMC substrate was used in the final concentration of 70 μM. The test material was used in the final concentrations of 10.0 μM, 3.33 μM, 1.11 μM, 0.370 μM, 0.123 μM, 0.0412 μM, 0.0137 μM, 0.00457 μM, 0.00152 μM, and 0.000508 μM, respectively. The cathepsin S enzyme was used in the final concentration of 3 nM. The final volume of the enzyme reaction solution was 10 μL.
After reacting the mixture of substrate, test material, and enzyme for 45 minutes, the enzyme activity was measured with the EnVision (Perkin Elmer) microplate reader at an absorption wavelength of 340 nm and an emission wavelength of 460 nm. IC50 values were determined using 4-parameter logistic curve fit program of GraphPad Prism.

cathepsin L = cathepsin L (Homo sapiens, UniProt P07711); assay: Inhibitory activity assay against cathepsin L (enzyme assay); conditions: Z-Phe-Arg-AMC 2 μM, enzyme 3 nM, pH 5.5, 30 minutes
Protocol: In order to measure the enzyme activity of cathepsin L, a buffer solution (pH 5.5) consisting of 50 mM MES, 2.5 mM DTT, 2.5 mM EDTA, 0.005% Polysorbate 20, and 10% DMSO was prepared. The substrate, the test material, and the enzyme were mixed in the buffer solution in a predetermined concentration. The Z-Phe-Arg-AMC substrate was used in the final concentration of 2 μM. The test material was used in the final concentrations of 10.0 μM, 3.33 μM, 1.11 μM, 0.370 μM, 0.123 μM, 0.0412 μM, 0.0137 μM, 0.00457 μM, 0.00152 μM, and 0.000508 μM, respectively. The cathepsin L enzyme was used in the final concentration of 3 nM. The final volume of the enzyme reaction solution was 10 μL. After reacting the mixture of substrate, test material, and enzyme for 30 minutes, the enzyme activity was measured with the EnVision (Perkin Elmer) microplate reader at an absorption wavelength of 340 nm and an emission wavelength of 460 nm. IC50 values were determined using 4-parameter logistic curve fit program of GraphPad Prism.

cathepsin B = cathepsin B (Homo sapiens, UniProt P07858); assay: Inhibitory activity assay against cathepsin B (enzyme assay); conditions: Z-Arg-Arg-AMC 40 μM, enzyme 1 nM, pH 6.0, 90 minutes
Protocol: In order to measure the enzyme activity of cathepsin B, a buffer solution (pH 6.0) consisting of 50 mM MES, 5 mM DTT, 2.5 mM EDTA, 0.005% Polysorbate 20, and 10% DMSO was prepared. The substrate, the test material, and the enzyme were mixed in the buffer solution in a predetermined concentration. The Z-Arg-Arg-AMC substrate was used in the final concentration of 40 μM. The test material was used in the final concentrations of 10.0 μM, 3.33 μM, 1.11 μM, 0.370 μM, 0.123 μM, 0.0412 μM, 0.0137 μM, 0.00457 μM, 0.00152 μM, and 0.000508 μM, respectively. The cathepsin B enzyme was used in the final concentration of 1 nM. The final volume of the enzyme reaction solution was 10 μL. After reacting the mixture of substrate, test material, and enzyme for 90 minutes, the enzyme activity was measured with the EnVision (Perkin Elmer) microplate reader at an absorption wavelength of 340 nm and an emission wavelength of 460 nm. IC50 values were determined using 4-parameter logistic curve fit program of GraphPad Prism.

cathepsin K = biological target: T1, cathepsin K (Homo sapiens, UniProt P43235); assay: Inhibitory activity assay against cathepsin K (enzyme assay); conditions: Z-Phe-Arg-AMC 10 μM, enzyme 1 nM, pH 5.5, 30 minutes
T1 sequence (P43235 115-329): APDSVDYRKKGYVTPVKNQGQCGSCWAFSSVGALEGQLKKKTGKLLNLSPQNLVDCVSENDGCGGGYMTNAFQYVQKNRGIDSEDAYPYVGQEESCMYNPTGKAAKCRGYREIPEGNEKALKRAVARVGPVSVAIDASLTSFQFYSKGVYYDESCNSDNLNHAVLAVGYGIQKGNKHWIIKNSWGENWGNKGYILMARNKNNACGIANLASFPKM
Protocol: In order to measure the enzyme activity of cathepsin K, a buffer solution (pH 5.5) consisting of 50 mM 2-(N-morpholino)ethanesulfonic acid (MES), 2 mM dithiothreitol (DTT), 2.5 mM ethylenediaminetetraacetic acid (EDTA), 0.01% Triton X-100, and 10% dimethyl sulfoxide (DMSO) was prepared. The substrate, the test material, and the enzyme were mixed in the buffer solution in a predetermined concentration. The Z-Phe-Arg-AMC substrate was used in the final concentration of 10 μM. The test material was used in the final concentrations of 10.0 μM, 3.33 μM, 1.11 μM, 0.370 μM, 0.123 μM, 0.0412 μM, 0.0137 μM, 0.00457 μM, 0.00152 μM, and 0.000508 μM, respectively. The cathepsin K enzyme was used in the final concentration of 1 nM. The final volume of the enzyme reaction solution was 10 μL. After reacting the mixture of substrate, test material, and enzyme for 30 minutes, the enzyme activity was measured with the Synergy Neo (Biotek) microplate reader at an absorption wavelength of 355 nm and an emission wavelength of 460 nm. IC50 values were determined using 4-parameter logistic curve fit program of GraphPad Prism.

cathepsin S, sequence (P25774 115-331, species assumed): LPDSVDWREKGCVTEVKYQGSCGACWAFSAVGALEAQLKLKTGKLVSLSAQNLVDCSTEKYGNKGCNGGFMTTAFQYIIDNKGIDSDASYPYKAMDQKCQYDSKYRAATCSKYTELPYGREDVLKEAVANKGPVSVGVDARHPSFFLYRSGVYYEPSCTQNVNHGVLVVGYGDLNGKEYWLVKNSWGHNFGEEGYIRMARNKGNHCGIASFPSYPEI
cathepsin L, sequence (P07711 114-333, species assumed): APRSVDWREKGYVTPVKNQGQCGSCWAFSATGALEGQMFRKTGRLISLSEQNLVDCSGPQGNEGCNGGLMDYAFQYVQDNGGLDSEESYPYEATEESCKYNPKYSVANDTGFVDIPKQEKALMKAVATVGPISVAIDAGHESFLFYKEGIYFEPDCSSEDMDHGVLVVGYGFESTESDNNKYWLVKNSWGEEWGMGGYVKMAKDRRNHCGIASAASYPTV

## CC(=O)NCc1ccc(-c2ccc(NC(=O)NC3(c4ccnc(C#N)n4)CCCCC3)cc2)cc1 [Example 151, N-((4′-(3-(1-(2-cyanopyrimidin-4-yl)cyclohexyl)ureido)-[1,1′-biphenyl]-4-yl)methyl)acetamide]
Cathepsin S
  IC50: > 10000 nM
Cathepsin L
  IC50: > 10000 nM
Cathepsin B
  IC50: > 10000 nM
Cathepsin K
  IC50: 2 nM

## CC(C)N1CCN(c2ccc(NC(=O)NC3(c4ccnc(C#N)n4)CCCCC3)cc2)CC1 [Example 142, 1-(1-(2-cyanopyrimidin-4-yl)cyclohexyl)-3-(4-(4-isopropylpiperazin-1-yl)phenyl)urea]
Cathepsin S
  IC50: > 10000 nM
Cathepsin L
  IC50: > 10000 nM
Cathepsin B
  IC50: > 10000 nM
Cathepsin K
  IC50: 17.9 nM

## N#Cc1nccc(C2(NC(=O)NCc3cccc4ccccc34)CCCC2)n1 [Example 55, 1-(1-(2-cyanopyrimidin-4-yl)cyclopentyl)-3-(naphthalen-1-ylmethyl)urea]
Cathepsin S
  IC50: > 10000 nM
Cathepsin L
  IC50: > 10000 nM
Cathepsin B
  IC50: 5660 nM
Cathepsin K
  IC50: 19.5 nM

## N#Cc1nccc(C2(NC(=O)Nc3ccc(C#CCCC(=O)O)cc3)CCCCC2)n1 [Example 182, 5-(4-(3-(1-(2-cyanopyrimidin-4-yl)cyclohexyl)ureido)phenyl)pent-4-ynoic acid]
Cathepsin S
  IC50: > 10000 nM
Cathepsin L
  IC50: > 10000 nM
Cathepsin B
  IC50: > 10000 nM
Cathepsin K
  IC50: 10.5 nM

## COC(=O)Cc1ccc(-c2ccc(NC(=O)NC3(c4ccnc(C#N)n4)CCCCC3)cc2)cc1 [Example 156, methyl 2-(4′-(3-(1-(2-cyanopyrimidin-4-yl)cyclohexyl)ureido)-[1,1′-biphenyl]-4-yl)acetate]
Cathepsin S
  IC50: > 10000 nM
Cathepsin L
  IC50: > 10000 nM
Cathepsin B
  IC50: > 10000 nM
Cathepsin K
  IC50: 4.3 nM

## Cc1ccc(C(F)(F)F)cc1NC(=O)NC1(c2ccnc(C#N)n2)CCCC1 [Example 66, 1-(1-(2-cyanopyrimidin-4-yl)cyclopentyl)-3-(2-methyl-5-(trifluoromethyl)phenyl)urea]
Cathepsin S
  IC50: > 10000 nM
Cathepsin L
  IC50: > 10000 nM
Cathepsin B
  IC50: > 10000 nM
Cathepsin K
  IC50: 3.4 nM

## N#Cc1nccc(C2(NC(=O)Nc3cc(C(F)(F)F)ccc3CO)CCCCC2)n1 [Example 108, 1-(1-(2-cyanopyrimidin-4-yl)cyclohexyl)-3-(2-(hydroxymethyl)-5-(trifluoromethyl)phenyl)urea]
Cathepsin S
  IC50: 9850 nM
Cathepsin L
  IC50: 2270 nM
Cathepsin B
  IC50: > 10000 nM
Cathepsin K
  IC50: 6.9 nM

## CS(=O)(=O)Nc1ccc(-c2ccc(NC(=O)NC3(c4ccnc(C#N)n4)CCCCC3)cc2)cc1 [Example 174, N-(4′-(3-(1-(2-cyanopyrimidin-4-yl)cyclohexyl)ureido)-[1,1′-biphenyl]-4-yl)methanesulfonamide]
Cathepsin S
  IC50: > 10000 nM
Cathepsin L
  IC50: > 10000 nM
Cathepsin B
  IC50: > 10000 nM
Cathepsin K
  IC50: 11.7 nM

## Cc1ccc(C)c(NC(=O)NC2(c3ccnc(C#N)n3)CCCCC2)c1 [Example 87, 1-(1-(2-cyanopyrimidin-4-yl)cyclohexyl)-3-(2,5-dimethylphenyl)urea]
Cathepsin S
  IC50: 6260 nM
Cathepsin L
  IC50: 898 nM
Cathepsin B
  IC50: > 10000 nM
Cathepsin K
  IC50: 3.6 nM

## N#Cc1nccc(C2(NC(=O)NCc3ccc4c(c3)OCO4)CCCC2)n1 [Example 43, 1-(benzo[d][1,3]dioxol-5-ylmethyl)-3-(1-(2-cyanopyrimidin-4-yl)cyclopentyl)urea]
Cathepsin S
  IC50: > 10000 nM
Cathepsin L
  IC50: > 10000 nM
Cathepsin B
  IC50: > 10000 nM
Cathepsin K
  IC50: 462 nM

## Cc1ccc(C)c(NC(=O)NC2(c3ccnc(C#N)n3)CCCC2)c1 [Example 50, 1-(1-(2-cyanopyrimidin-4-yl)cyclopentyl)-3-(2,5-dimethylphenyl)urea]
Cathepsin S
  IC50: > 10000 nM
Cathepsin L
  IC50: 2670 nM
Cathepsin B
  IC50: > 10000 nM
Cathepsin K
  IC50: 4.3 nM

## N#Cc1nccc(C2(NC(=O)Nc3ccc(Cc4ccccc4)cc3)CCCCC2)n1 [Example 100, 1-(4-benzylphenyl)-3-(1-(2-cyanopyrimidin-4-yl)cyclohexyl)urea]
Cathepsin S
  IC50: > 10000 nM
Cathepsin L
  IC50: > 10000 nM
Cathepsin B
  IC50: > 10000 nM
Cathepsin K
  IC50: 15.4 nM

## COc1ccccc1COC(=O)NC1(c2ccnc(C#N)n2)CCCCC1 [Example 21, 2-methoxybenzyl (1-(2-cyanopyrimidin-4-yl)cyclohexyl)carbamate]
Cathepsin S
  IC50: > 10000 nM
Cathepsin L
  IC50: 2860 nM
Cathepsin B
  IC50: > 10000 nM
Cathepsin K
  IC50: 83.8 nM
